Assay results from patent US20020156084A1, “Use of N-benzyl piperazine and analogues as quality of life enhancers” (priority 2001, published 2002).

Test: Administration of N-Benzyl Piperazine (appetite suppressant / anti-depressant effect)
Type: in vivo
Conditions: administration of the compound; no test details given
Text: This Patent description is of the use of N-Benzyl Piperazine and Analogues as Quality of Life Enhancers. Administration of N-Benzyl Piperazine has shown to be effective as an appetite suppressant and as a mild anti-depressant. Yeah though it be known that N-Benzyl Piperazine is a CNS stimulant and that stimulants usually are appetite suppressants, it was unknown and unobvious that the binding affinities for the serotonin receptor would be in “perfect” harmony with the norepinephrine receptor to eliminate the side effects of nervousness and the like. It was also unobvious that the increased levels of serotonin and norepinephrine would facilitate individuals in their daily lives to accomplish goals. That is why it is referred to as a Quality of Life Enhancer. Quality of Life Enhancer is defined as a weight loss supplement, appetite suppressant, anti-depressant, cognition enhancer or diet supplement.
Administration of the compounds is usually in the form of their pharmaceutically acceptable acid addition salts. Doses are within the range if 10 mg to 300 mg per day, but usually are in pills of 75 mg two times a day. Once desired effect is attained 75 mg per day is sufficient.

c1ccc(CN2CCNCC2)cc1 [N-Benzyl Piperazine, 1-benzylpiperazine]
effectiveness as a mild anti-depressant: effective
